Assay results: patent publication US11370785B2, “Multicyclic compounds as farnesoid X receptor modulators” (BRISTOL-MYERS SQUIBB COMPANY, priority 2017, dated 2022)
Like-named read-outs stand apart in the source and are kept apart here.

Biological target: T1, human FXR (Homo sapiens, UniProt Q96RI1)
T1 construct: expressed in transfected cells; host or cells: HEK293 cells stably carrying a 5xGal4-response-element firefly luciferase reporter, transiently transfected with the pcDNA3.1-Gal4-FXR plasmid
T1 sequence (Q96RI1 262-486 limits assumed): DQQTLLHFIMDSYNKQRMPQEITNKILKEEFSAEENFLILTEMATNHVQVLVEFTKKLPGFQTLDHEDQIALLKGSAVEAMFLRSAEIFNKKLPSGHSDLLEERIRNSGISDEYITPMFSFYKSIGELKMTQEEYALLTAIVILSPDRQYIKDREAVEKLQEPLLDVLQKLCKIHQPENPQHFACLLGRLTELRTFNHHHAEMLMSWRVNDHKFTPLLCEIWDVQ
Assay: transient human FXR/Gal4-luciferase reporter assay
Type: cell-based
Details: Gal4-hFXR reporter in HEK293 cells
Procedure: The exemplified compounds of the present invention were tested in the transient human FXR/Gal4-luciferase reporter assay, and assay results were reported in Table 1 together with other analytical data.
A Gal4-hFXR fusion construct reporter system was used as the primary assay to characterize compound activity. A construct including 5 copies of the Gal4 promoter response element upstream of a firefly luciferase reporter cDNA was stably expressed in HEK293 cells. This reporter cell line was maintained in Dulbecco's Modified Eagle's medium (DMEM; Gibco) supplemented with 1% penicillin-streptomycin (P/S) solution, 500 μg/mL Zeocin and 10% charcoal/dextran-treated fetal bovine serum (cs-FBS) at 37° C. in a humidified 5% CO2 atmosphere. Another plasmid was constructed in which the human cytomegalovirus promoter in the pcDNA3.1 vector directs the expression of the cDNA encoding a fusion protein comprised of the DNA binding domain from the Gal4 transcription factor fused to the ligand binding domain from human FXR.
The day prior to transfection, the reporter cells in culture are detached from the plate with trypsin and plated into a T75 flask at a sufficient density to achieve approximately 90% confluence the next morning. The transfection reagents are prepared by separately diluting 25 μg of the pcDNA3.1-Gal4-FXR plasmid into 1.87 mL of Opti-MEM (Thermo-Fisher), and 40 μL of Lipofectamine 2000 (Thermo-Fisher) into 1.87 mL of Opti-MEM, and then adding the diluted DNA solution into the diluted Lipofectamine 2000 solution and incubating at room temperature for 15-20 minutes. The mixture is further diluted with 10 mL of a solution comprised of DMEM, 10% cs-FBS, and 1% P/S immediately prior to transferring to the cells. The maintenance culture media is aspirated from the cells and the final transfection mixture is added before the cells are incubated overnight at 37° C. in a humidified 5% CO2 atmosphere. This protocol can be scaled up, and the transiently transfected cells can be cryopreserved in an assay-ready format.
For compound testing, 100 nL of the compounds (serial dilutions in DMSO) are dispensed with an Echo acoustic dispenser (Labcyte) into the wells of a Corning/Costar clear bottom 384-well white plate. The transfected cells are harvested, counted, and diluted such that 10-25,000 cells in 25 μL are plated into each well of the 384-well compound assay plate. The compound-treated cells are incubated overnight at 37° C. in a humidified 5% CO2 atmosphere. The next morning 25 μL of Steady-Glo (Promega) are added to each well of the plate, the mixture is incubated for 15 min. with shaking, and luminescence is measured on an Envision (Perkin Elmer) plate reader. Background counts from cells treated with DMSO alone are subtracted from all raw counts, and the corrected values are converted to a percentage of the control response attained with 8 μM GW-4064.

[1] = relative to 8 μM GW-4064, read-out: FXR EC50

SMILES	EC50 [1]	EC50 (read-out: HLE GAL-FXR EC50)
O=C(O)c1cc2ccc(N3CCC4(CC3)CC(=Cc3c(-c5ccccc5C(F)(F)F)noc3C3CC3)C4)cc2nn1 [Example 36]	878 nM	
CCc1cc(N2CCC3(CC2)CC(Cc2c(-c4c(Cl)cccc4Cl)noc2C2CC2)C3)ccc1OCC(=O)O [Example 96]	793 nM	
Clc1cccc(Cl)c1-c1noc(C2CC2)c1C=C1CC2(CCN(c3ccc(-c4nn[nH]n4)cc3)CC2)C1 [Example 50, 4-((7-(4-(2H-tetrazol-5-yl)phenyl)-7-azaspiro[3.5]nonan-2-ylidene)methyl)-5-cyclopropyl-3-(2,6-dichlorophenyl)isoxazole]		4330 nM
O=C(O)c1cc(F)c2nc(N3CCC4(CC3)CC(=Cc3c(C5CC5)nnn3-c3c(Cl)cccc3Cl)C4)sc2c1 [Example 6, 2-(2-((4-Cyclopropyl-1-(2,6-dichlorophenyl)-1H-1,2,3-triazol-5-yl)methylene)-7-azaspiro[3.5]nonan-7-yl)-4-fluorobenzo[d]thiazole-6-carboxylic acid]		402 nM
Cn1cc(C(=O)O)c2cnc(N3CCC4(CC3)CC(Nc3c(-c5c(Cl)cccc5Cl)noc3C3CC3)C4)nc21 [Example 19]	305 nM	
O=C(O)c1ccc(S(=O)(=O)N2CCC3(CC2)CC(Cc2c(-c4c(Cl)cccc4Cl)noc2C2CC2)C3)cc1 [Example 174]	540 nM	
COc1ccc(C(=O)O)c2ccc(N3CCC4(CC3)CC(=Cc3c(-c5ccccc5C(F)(F)F)noc3C3CC3)C4)nc12 [Example 117]	241 nM	
O=C(O)c1cc(F)c2nc(N3CCC4(CC3)CC(=Cc3c(-c5ccccc5OC(F)(F)F)noc3C3CC3)C4)sc2c1 [Example 26]	352 nM	
CN(C)C(=O)c1cc(OC2CCC2)c2cc(N3CCC4(CC3)CC(Cc3c(-c5ccccc5C(F)(F)F)noc3C3CC3)C4)ccc2n1 [Example 172, 4-Cyclobutoxy-6-(2-((5-cyclopropyl-3-(2-(trifluoromethyl)phenyl)isoxazol-4-yl)methyl)-7-azaspiro[3.5]nonan-7-yl)-N,N-dimethylquinoline-2-carboxamide]	69 nM	

Further lines, results first:

EC50 [1]	EC50 (read-out: HLE GAL-FXR EC50)	SMILES
19 nM		COCCn1cc(C(=O)O)c2ccc(N3CCC4(CC3)CC(=Cc3c(-c5c(Cl)cccc5Cl)noc3C3CC3)C4)cc21 [Example 57]
37 nM		CCN(C)C(=O)c1cc(OC2CCC2)c2cc(N3CCC4(CC3)CC(Cc3c(-c5ccccc5C(F)(F)F)noc3C3CC3)C4)ccc2n1 [Example 184]
30 nM		CCc1cncc(Cl)c1-c1noc(C2CC2)c1C=C1CC2(CCN(c3ccc4nc(C(=O)O)cc(C(F)(F)F)c4c3)CC2)C1 [Example 166]
12 nM		O=C(O)c1cc(C(F)(F)F)c2cc(N3CCC4(CC3)CC(=Cc3c(-c5ccccc5C(F)(F)F)noc3C3CC3)C4)ccc2n1 [Example 30]
144 nM		Cc1cccc(Cl)c1-c1noc(C2CC2)c1C=C1CC2(CCN(c3nc4c(F)cc(C(=O)O)cc4s3)CC2)C1 [Example 60]
172 nM		O=C(O)c1ccc2cc(N3CCC4(CC3)CC(=Cc3c(-c5ccccc5C(F)(F)F)noc3C3CC3)C4)ccc2n1 [Example 29]
33 nM		O=C(O)c1cc(OC2CCC2)c2cc(N3CCC4(CC3)CC(Cc3c(-c5ccccc5C(F)(F)F)noc3C3CC3)C4)ccc2n1 [Example 109]
160 nM		CC(O)Cc1cc(C(=O)O)nc2ccc(N3CCC4(CC3)CC(Cc3c(-c5ccccc5C(F)(F)F)noc3C3CC3)C4)cc12 (stereo not drawn) [Example 147]
16 nM		O=C(O)c1cc(OC2CCCC2)c2cc(N3CCC4(CC3)CC(=Cc3c(-c5ccccc5OC(F)(F)F)noc3C3CC3)C4)ccc2n1 [Example 121]
76 nM		O=C(c1cc(OC2CCC2)c2cc(N3CCC4(CC3)CC(Cc3c(-c5ccccc5C(F)(F)F)noc3C3CC3)C4)ccc2n1)N1CCCC1 [Example 188]
4 nM		O=C(O)c1cc(OCC(F)F)c2cc(N3CCC4(CC3)CC(=Cc3c(-c5ccccc5C(F)(F)F)noc3C3CC3)C4)ccc2n1 [Example 148]
3 nM		CC(C)Oc1cc(C(=O)O)nc2ccc(N3CCC4(CC3)CC(=Cc3c(-c5c(Cl)cncc5Cl)noc3C3CC3)C4)cc12 [Example 85]
